Experimental data taken from patent publication US12590083B2, “Inhibitors of spinster homolog 2 (SPNS2) for use in therapy” (University of Virginia Patent Foundation, priority 2019, dated 2026).
Where a name gives a salt, the structure may show the parent alone.

Each molecule was assayed against T1, human SPNS2 (Homo sapiens, UniProt Q8IVW8) (assay: S1P transporter assay: growth of S. cerevisiae strain with forced expression of a mammalian SphK and human SPNS2). Settings: in vitro inhibition of SPNS2; growth of S. cerevisiae strain expressing mammalian SphK and human SPNS2; compounds as their pharmaceutical salts.
T1 construct: expressed in transfected cells; host or cells: Saccharomyces cerevisiae strain with forced expression of a mammalian SphK and human SPNS2
T1 sequence (Q8IVW8 1-549): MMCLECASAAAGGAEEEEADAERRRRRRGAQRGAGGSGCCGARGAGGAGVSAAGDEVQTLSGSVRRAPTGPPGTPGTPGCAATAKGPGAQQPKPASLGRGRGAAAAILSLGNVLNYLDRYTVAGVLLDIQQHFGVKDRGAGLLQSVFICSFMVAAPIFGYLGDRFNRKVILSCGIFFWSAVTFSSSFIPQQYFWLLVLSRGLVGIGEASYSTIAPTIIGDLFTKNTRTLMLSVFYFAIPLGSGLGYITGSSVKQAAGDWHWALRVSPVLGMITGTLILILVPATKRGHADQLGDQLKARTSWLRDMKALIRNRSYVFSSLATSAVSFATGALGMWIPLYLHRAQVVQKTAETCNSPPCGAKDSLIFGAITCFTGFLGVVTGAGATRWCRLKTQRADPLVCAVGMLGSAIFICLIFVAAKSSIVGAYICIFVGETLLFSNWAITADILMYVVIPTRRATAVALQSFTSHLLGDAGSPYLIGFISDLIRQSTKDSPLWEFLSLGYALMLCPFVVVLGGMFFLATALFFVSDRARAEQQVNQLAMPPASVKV
Assay type: cell-based
Summary of the method: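 S. cerevisiae strain with forced expression of a mammalian SphK and human SPNS2; since excess phospho-LCB inhibits yeast growth, SPNS2 inhibitors reduce growth of this strain. Inhibition measured in vitro as decreased strain growth.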

Q: How did the IC50 turn out when CCCCCCCOc1ccc(-c2noc([C@@H]3CCCN(C(=N)N)C3)n2)cc1C(F)(F)F [Compound 23c, (R)-3-(3-(4-(heptyloxy)-3-(trifluoromethyl)phenyl)-1,2,4-oxadiazol-5-yl)piperidine-1-carboximidamide hydrochloride] was run?
A: Its IC50 is no more than 2 µM.

Q: With CCCCCCCCNc1ccc(-c2noc([C@@H]3CCNC3)n2)cn1 [Compound 13b, (R)—N-octyl-5-(5-(pyrrolidin-3-yl)-1,2,4-oxadiazol-3-yl)pyridin-2-amine hydrochloride] as the molecule, how does the IC50 read?
A: Its IC50 is greater than 2 µM.

Q: With CCCCCCCCCOc1ccc(-c2noc(C3CN(C(=N)N)C3)n2)cc1C(F)(F)F [Compound 23b, 3-(3-(4-(nonyloxy)-3-(trifluoromethyl)phenyl)-1,2,4-oxadiazol-5-yl)azetidine-1-carboximidamide hydrochloride] as the molecule, how does the IC50 read?
A: Its IC50 is no more than 2 µM.

Q: N=C(N)N1CC[C@@H](c2nc(-c3ccc(N4CCCCC4)nc3)no2)C1 [Compound 15a, (R)-3-(3-(6-(piperidin-1-yl)pyridin-3-yl)-1,2,4-oxadiazol-5-yl)pyrrolidine-1-carboximidamide hydrochloride] was tested. Which IC50 did it give?
A: Its IC50 is greater than 2 µM.

Q: For CCCCCCCOc1ccc2cc(-c3noc([C@@H]4CCNC4)n3)ccc2c1 [Compound 5aa, (R)-3-(6-(heptyloxy)naphthalen-2-yl)-5-(pyrrolidin-3-yl)-1,2,4-oxadiazole hydrochloride], which IC50 is on record?
A: Its IC50 is no more than 2 µM.

Q: C/C(=N\OCc1ccc(C(C)(C)C)cc1)c1ccc(-c2noc([C@@H]3CCNC3)n2)cc1 [Compound 38k, (R,E)-1-(4-(5-(pyrrolidin-3-yl)-1,2,4-oxadiazol-3-yl)phenyl)ethan-1-one O-(4-(tert-butyl)benzyl) oxime hydrochlorid] was tested. Which IC50 did it give?
A: Its IC50 is no more than 2 µM.

Q: With CCCCCCCOc1ccc(-c2noc([C@@H]3CCCNC3)n2)cc1C(F)(F)F [Compound 21c, (R)-3-(4-(heptyloxy)-3-(trifluoromethyl)phenyl)-5-(piperidin-3-yl)-1,2,4-oxadiazole hydrochloride] as the molecule, how does the IC50 read?
A: The IC50 was greater than 2 µM.

Q: With CC(C)(C)c1cccc(Nc2ccc(-c3noc([C@@H]4CCNC4)n3)cn2)c1 [Compound 13g, (R)—N-(3-(tert-butyl)phenyl)-5-(5-(pyrrolidin-3-yl)-1,2,4-oxadiazol-3-yl)pyridin-2-amine hydrochloride] as the molecule, how does the IC50 read?
A: The IC50 was greater than 2 µM.

Q: CCCCCCCCCCOc1ccc(-c2noc([C@@H]3CCCNC3)n2)cc1C(F)(F)F [Compound 21f, (R)-3-(4-(decyloxy)-3-(trifluoromethyl)phenyl)-5-(piperidin-3-yl)-1,2,4-oxadiazole hydrochloride] was tested. Which IC50 did it give?
A: Its IC50 is greater than 2 µM.

Q: CCCCCCCCNc1ccc(-c2noc([C@@H]3CCN(C(=N)N)C3)n2)cn1 [Compound 15b, (R)-3-(3-(6-(octylamino)pyridin-3-yl)-1,2,4-oxadiazol-5-yl)pyrrolidine-1-carboximidamide hydrochloride] was tested. Which IC50 did it give?
A: Its IC50 is greater than 2 µM.

Q: Which IC50 does the source give for C/C(=N\OCCCCc1ccccc1)c1ccc(-c2noc([C@@H]3CCNC3)n2)cc1 [Compound 38a, (R)-1-(4-(5-(pyrrolidin-3-yl)-1,2,4-oxadiazol-3-yl)phenyl)ethan-1-one O-(4-phenylbutyl) oxime hydrochloride] here?
A: The IC50 was no more than 2 µM.

Q: How did the IC50 turn out when C/C(=N\OCc1ccc(F)cc1)c1ccc(-c2noc([C@@H]3CCN(C(=N)N)C3)n2)cc1 [Compound 40m, (R)-3-(3-(4-(1-(((4-fluorobenzyl)oxy)imino)ethyl)phenyl)-1,2,4-oxadiazol-5-yl)pyrrolidine-1-carboximidamide hydrochloride] was run?
A: The IC50 was greater than 2 µM.

Q: How did the IC50 turn out when CCCCCCCCCc1ccc(-c2noc(C3CN(C(=N)N)C3)n2)cc1 [Compound 7c, 3-(3-(4-nonylphenyl)-1,2,4-oxadiazol-5-yl)azetidine-1-carboximidamide hydrochloride] was run?
A: Its IC50 is no more than 2 µM.

Q: CCCCCCCCCCCc1ccc(-c2noc(C3CNC3)n2)cc1 [Compound 5a, 5-(azetidin-3-yl)-3-(4-undecylphenyl)-1,2,4-oxadiazole 2,2,2-trifluoroacetate] was tested. Which IC50 did it give?
A: The IC50 was greater than 2 µM.

Q: C/C(=N\OCc1ccc(Br)cc1)c1ccc(-c2noc([C@@H]3CCN(C(=N)N)C3)n2)cc1 [Compound 40n, (R)-3-(3-(4-(1-(((4-bromobenzyl)oxy)imino)ethyl)phenyl)-1,2,4-oxadiazol-5-yl)pyrrolidine-1-carboximidamide hydrochloride] was tested. Which IC50 did it give?
A: The IC50 was greater than 2 µM.

Q: For CCCCCCCCCCc1ccc(-c2noc(C[C@@H]3CCNC3)n2)cc1 [Compound 5p, (S)-3-(4-decylphenyl)-5-(pyrrolidin-3-ylmethyl)-1,2,4-oxadiazole 2,2,2-trifluoroacetate], which IC50 is on record?
A: The IC50 was no more than 2 µM.
